# Results published in US20240116892A1, “HETEROCYCLIC AMIDE AND UREA COMPOUNDS AS JAK2 INHIBITORS” (Ajax Therapeutics, Inc., priority 2022, published 2024).
# Target: JAK2 (JH1 domain-catalytic, Y1007F, Y1008F) kinase (Homo sapiens (Human), UniProt O60674, Y1007F/Y1008F)
# Assay: JAK2 JH1 Domain Binding Assay
# Details: qPCR readout
# In short: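 Competitive binding format: test compound, DNA-tagged JAK2 JH1 (Y1007F/Y1008F; HEK293-expressed NFkB fusion) and ligand-coated magnetic beads incubated 1 h at room temperature. Kinase retained on beads released with 0.5 μmol/L non-biotinylated ligand, then measured by qPCR.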
# JAK2 (JH1 domain-catalytic, Y1007F, Y1008F) kinase, sequence (O60674 849-1124 Y1007F/Y1008F): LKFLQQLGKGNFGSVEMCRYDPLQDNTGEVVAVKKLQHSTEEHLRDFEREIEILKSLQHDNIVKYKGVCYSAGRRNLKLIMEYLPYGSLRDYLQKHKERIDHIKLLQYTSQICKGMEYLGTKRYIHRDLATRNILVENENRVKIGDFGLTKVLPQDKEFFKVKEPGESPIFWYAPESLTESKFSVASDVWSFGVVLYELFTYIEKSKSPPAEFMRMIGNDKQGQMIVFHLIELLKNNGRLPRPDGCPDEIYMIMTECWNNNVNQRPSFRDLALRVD
row,Kd,Compound
1,< 10 nM,"C[C@H]1CN(c2cnc3[nH]ncc3c2)CC[C@@H]1N(C)C(=O)Nc1cc(C(F)(F)F)cn(C)c1=O [Example I-74-a, 1-methyl-1-((3S,4S)-3-methyl-1-(1H-pyrazolo[3,4-b]pyridin-5-yl)piperidin-4-yl)-3-(1-methyl-2-oxo-5-(trifluoromethyl)-1,2-dihydropyridin-3-yl)urea]"
2,50 to 1000 nM,"C[C@@H]1CN(c2cnc3[nH]ncc3c2)CC[C@H]1N(C)C(=O)Nc1cc(C(F)(F)F)cn(C)c1=O [Example I-74-b, 1-methyl-1-((3R,4R)-3-methyl-1-(1H-pyrazolo[3,4-b]pyridin-5-yl)piperidin-4-yl)-3-(1-methyl-2-oxo-5-(trifluoromethyl)-1,2-dihydropyridin-3-yl)urea]"
3,≥ 5000 nM,"CN(C(=O)Nc1cc(C(F)(F)F)cn(C)c1=O)C1CC2(C1)CN(c1cnc3[nH]cc(C#N)c3n1)C2 [Example I-75, 1-(2-(7-cyano-5H-pyrrolo[2,3-b]pyrazin-2-yl)-2-azaspiro[3.3]heptan-6-yl)-1-methyl-3-(1-methyl-2-oxo-5-(trifluoromethyl)-1,2-dihydropyridin-3-yl)urea]"
4,< 10 nM,"CN(C(=O)Nc1cc(C(F)(F)F)cn(C)c1=O)C1CCN(c2cnc3[nH]c(=O)[nH]c3c2)CC1 [Example I-76, 1-methyl-3-(1-methyl-2-oxo-5-(trifluoromethyl)-1,2-dihydropyridin-3-yl)-1-(1-(2-oxo-2,3-dihydro-1H-imidazo[4,5-b]pyridin-6-yl)piperidin-4-yl)urea]"
5,< 10 nM,"COCc1cc2nc(N3CCC(N(C)C(=O)Nc4cc(C(F)(F)F)cn(C)c4=O)CC3)cnc2[nH]1 [Example I-77, 1-(1-(6-(methoxymethyl)-5H-pyrrolo[2,3-b]pyrazin-2-yl)piperidin-4-yl)-1-methyl-3-(1-methyl-2-oxo-5-(trifluoromethyl)-1,2-dihydropyridin-3-yl)urea]"
6,10 to 50 nM,"Cn1cc(C(F)(F)F)cc(NC(=O)N2CC=CC23CCN(c2cnc4[nH]ccc4n2)CC3)c1=O [Example I-78, N-(1-methyl-2-oxo-5-(trifluoromethyl)-1,2-dihydropyridin-3-yl)-8-(5H-pyrrolo[2,3-b]pyrazin-2-yl)-1,8-diazaspiro[4.5]dec-3-ene-1-carboxamide]"
7,10 to 50 nM,"CN(C(=O)Nc1cc(C(F)(F)F)cn(C)c1=O)[C@H]1[C@@H]2CC[C@H]1CN(c1cnc3[nH]ccc3n1)C2 [Example I-79, 1-(3-(5H-pyrrolo[2,3-b]pyrazin-2-yl)-3-azabicyclo[3.2.1]octan-8-yl)-1-methyl-3-(1-methyl-2-oxo-5-(trifluoromethyl)-1,2-dihydropyridin-3-yl)urea]"
8,10 to 50 nM,"CN(C(=O)Nc1cc(C(F)(F)F)cn(C)c1=O)[C@H]1[C@@H]2CC[C@H]1CN(c1cnc3[nH]ncc3c1)C2 [Example I-80, 1-(3-(1H-pyrazolo[3,4-b]pyridin-5-yl)-3-azabicyclo[3.2.1]octan-8-yl)-1-methyl-3-(1-methyl-2-oxo-5-(trifluoromethyl)-1,2-dihydropyridin-3-yl)urea]"
9,10 to 50 nM,"Cn1cc(C(F)(F)F)cc(NC(=O)N2CC=CC23CCN(c2cnc4[nH]ncc4c2)CC3)c1=O [Example I-81, N-(1-methyl-2-oxo-5-(trifluoromethyl)-1,2-dihydropyridin-3-yl)-8-(1H-pyrazolo[3,4-b]pyridin-5-yl)-1,8-diazaspiro[4.5]dec-3-ene-1-carboxamide]"
10,< 10 nM,"CN(C(=O)Nc1cc(C(F)(F)F)cn(C)c1=O)[C@H]1CCN(c2cnc3[nH]ncc3n2)C[C@H]1F [Example I-83-a, 1-((3R,4S)-3-fluoro-1-(1H-pyrazolo[3,4-b]pyrazin-5-yl)piperidin-4-yl)-1-methyl-3-(1-methyl-2-oxo-5-(trifluoromethyl)-1,2-dihydropyridin-3-yl)urea]"
11,< 10 nM,"CN(C(=O)Nc1cc(C(F)(F)F)cn(C)c1=O)[C@@H]1CCN(c2cnc3[nH]ncc3n2)C[C@@H]1F [Example I-83-b, 1-((3S,4R)-3-fluoro-1-(1H-pyrazolo[3,4-b]pyrazin-5-yl)piperidin-4-yl)-1-methyl-3-(1-methyl-2-oxo-5-(trifluoromethyl)-1,2-dihydropyridin-3-yl)urea]"
12,< 10 nM,"COc1n[nH]c2ncc(N3CC[C@H](N(C)C(=O)Nc4cc(C(F)(F)F)cn(C)c4=O)[C@@H](F)C3)cc12 [Example I-84-a, 1-((3S,4S)-3-fluoro-1-(3-methoxy-1H-pyrazolo[3,4-b]pyridin-5-yl)piperidin-4-yl)-1-methyl-3-(1-methyl-2-oxo-5-(trifluoromethyl)-1,2-dihydropyridin-3-yl)urea]"

# The next lines start with the compound.
row,Compound,Kd
1,"C[C@@H]1CN(c2cnc3[nH]ccc3n2)CC[C@@H]1N(C)C(=O)Nc1cc(C(F)(F)F)cn(C)c1=O [Example I-58-a, 1-methyl-1-((3R,4S)-3-methyl-1-(5H-pyrrolo[2,3-b]pyrazin-2-yl)piperidin-4-yl)-3-(1-methyl-2-oxo-5-(trifluoromethyl)-1,2-dihydropyridin-3-yl)urea]",< 10 nM
2,"C[C@H]1CN(c2cnc3[nH]ccc3n2)CC[C@H]1N(C)C(=O)Nc1cc(C(F)(F)F)cn(C)c1=O [Example I-58-b, 1-methyl-1-((3S,4R)-3-methyl-1-(5H-pyrrolo[2,3-b]pyrazin-2-yl)piperidin-4-yl)-3-(1-methyl-2-oxo-5-(trifluoromethyl)-1,2-dihydropyridin-3-yl)urea]",< 10 nM
3,"CN(C(=O)Nc1cc(C(F)(F)F)cn(C)c1=O)C1CCN(c2cnc3[nH]cc(C#N)c3n2)CC1 [Example I-59, 1-(1-(7-cyano-5H-pyrrolo[2,3-b]pyrazin-2-yl)piperidin-4-yl)-1-methyl-3-(1-methyl-2-oxo-5-(trifluoromethyl)-1,2-dihydropyridin-3-yl)urea]",< 10 nM
4,"CN(C(=O)Nc1cc(C(F)(F)F)cn(C)c1=O)[C@@H]1CCN(c2cnc3[nH]ccc3n2)C[C@@H]1F [Example I-64-a, 1-((3S,4R)-3-fluoro-1-(5H-pyrrolo[2,3-b]pyrazin-2-yl)piperidin-4-yl)-1-methyl-3-(1-methyl-2-oxo-5-(trifluoromethyl)-1,2-dihydropyridin-3-yl)urea]",< 10 nM
5,"CN(C(=O)Nc1cc(C(F)(F)F)cn(C)c1=O)[C@H]1CCN(c2cnc3[nH]ccc3n2)C[C@H]1F [Example I-64-b, 1-((3R,4S)-3-fluoro-1-(5HI-pyrrolo[2,3-b]pyrazin-2-yl)piperidin-4-yl)-1-methyl-3-(1-methyl-2-oxo-5-(trifluoromethyl)-1,2-dihydropyridin-3-yl)urea]",< 10 nM
6,"Cn1cc(C(F)(F)F)cc(NC(=O)C2(C3CCN(c4cnc5[nH]cc(F)c5n4)CC3)CC2)c1=O [Example I-65, 1-(1-(7-fluoro-5H-pyrrolo[2,3-b]pyrazin-2-yl)piperidin-4-yl)-N-(1-methyl-2-oxo-5-(trifluoromethyl)-1,2-dihydropyridin-3-yl)cyclopropane-1-carboxamide]",< 10 nM
7,"CN(C(=O)Nc1cc(C(F)(F)F)cn(C)c1=O)C1CCN(c2cnc3sncc3c2)CC1 [Example I-66, 1-(1-(isothiazolo[5,4-b]pyridin-5-yl)piperidin-4-yl)-1-methyl-3-(1-methyl-2-oxo-5-(trifluoromethyl)-1,2-dihydropyridin-3-yl)urea]",< 10 nM
8,"Cn1cc(C(F)(F)F)cc(NC(=O)N2CCC23CCN(c2cnc4[nH]ccc4n2)CC3)c1=O [Example I-67, N-(1-methyl-2-oxo-5-(trifluoromethyl)-1,2-dihydropyridin-3-yl)-7-(5H-pyrrolo[2,3-b]pyrazin-2-yl)-1,7-diazaspiro[3.5]nonane-1-carboxamide]",50 to 1000 nM
9,"CN(C(=O)Nc1cc(C(F)(F)F)cn(C)c1=O)C1CCN(c2cnc3[nH]ncc3n2)CC1 [Example I-68, 1-(1-(1H-pyrazolo[3,4-b]pyrazin-5-yl)piperidin-4-yl)-1-methyl-3-(1-methyl-2-oxo-5-(trifluoromethyl)-1,2-dihydropyridin-3-yl)urea]",< 10 nM
10,"COc1n[nH]c2ncc(N3CCC(N(C)C(=O)Nc4cc(C(F)(F)F)cn(C)c4=O)CC3)cc12 [Example I-69, 1-(1-(3-methoxy-1H-pyrazolo[3,4-b]pyridin-5-yl)piperidin-4-yl)-1-methyl-3-(1-methyl-2-oxo-5-(trifluoromethyl)-1,2-dihydropyridin-3-yl)urea]",< 10 nM
11,"C[C@@H]1CN(c2cnc3[nH]ncc3c2)CC[C@@H]1N(C)C(=O)Nc1cc(C(F)(F)F)cn(C)c1=O [Example I-70-a, 1-methyl-1-((3R,4S)-3-methyl-1-(1H-pyrazolo[3,4-b]pyridin-5-yl)piperidin-4-yl)-3-(1-methyl-2-oxo-5-(trifluoromethyl)-1,2-dihydropyridin-3-yl)urea]",< 10 nM
12,"C[C@H]1CN(c2cnc3[nH]ncc3c2)CC[C@H]1N(C)C(=O)Nc1cc(C(F)(F)F)cn(C)c1=O [Example I-70-b, 1-methyl-1-((3S,4R)-3-methyl-1-(1H-pyrazolo[3,4-b]pyridin-5-yl)piperidin-4-yl)-3-(1-methyl-2-oxo-5-(trifluoromethyl)-1,2-dihydropyridin-3-yl)urea]",< 10 nM
13,"Cn1cc(C(F)(F)F)cc(NC(=O)OC2(C)CCN(c3cnc4[nH]ccc4n3)CC2)c1=O [Example I-71, 4-methyl-1-(5H-pyrrolo[2,3-b]pyrazin-2-yl)piperidin-4-yl (1-methyl-2-oxo-5-(trifluoromethyl)-1,2-dihydropyridin-3-yl)carbamate]",50 to 1000 nM
14,"CN(C(=O)Nc1cc(C(F)(F)F)cn(C)c1=O)C1CC2(C1)CN(c1cnc3[nH]ncc3n1)C2 [Example I-72, 1-(2-(1H-pyrazolo[3,4-b]pyrazin-5-yl)-2-azaspiro[3.3]heptan-6-yl)-1-methyl-3-(1-methyl-2-oxo-5-(trifluoromethyl)-1,2-dihydropyridin-3-yl)urea]",< 10 nM
15,"CN(C(=O)Nc1cc(C(F)(F)F)cn(C)c1=O)C1CCN(c2cnc3cn[nH]c3c2)CC1 [Example I-73, 1-(1-(1H-pyrazolo[4,3-b]pyridin-6-yl)piperidin-4-yl)-1-methyl-3-(1-methyl-2-oxo-5-(trifluoromethyl)-1,2-dihydropyridin-3-yl)urea]",< 10 nM
